Experiments:
Type in all cases: cell-based, human
CEACAM1 = CEACAM1 expression by flow cytometry in HUVEC; conditions: treatment with antioxidants; ratios of mean fluorescence intensity to control cells
Source text: FIG. 6A-D: CEACAM protein increases in CMV-infected HUVEC. (A) (Left panel) Flow cytometric analysis of CEACAM1 surface expression. Typical histograms from control and infected human umbilical vein endothelial cells (HUVEC) are shown. Shaded areas represent expression of specific proteins, and lines represent isotype control. (Middle panel) Graphs represent mean fluorescence intensity (mean±SE). Statistically significant differences are indicated (*p<0.05, **p<0.001). (Right panel) VR1814-infected HUVEC increase intracellular CEACAM1 protein. Permeabilized cells were analyzed by flow cytometry. Shaded areas represent expression of specific proteins; lines represent isotype control. (B) CEACAM1 levels in conditioned medium measured by ELISA. Polyclonal and biotinylated CEACAM1-specific IgG (R&D Systems) were used for coating and detection, respectively. CEACAM1 was quantified with peroxidase-conjugated streptavidin. CEACAM1 concentration increased in conditioned medium from infected HUVEC (1 PFU/cell). Graphs represent mean value±SE (n=4). Statistically significant differences are indicated (*p<0.05). (C) Infected HUVEC and controls were immunostained for CEACAM1 and CMV gB. Please Note: cells without viral proteins express CEACAM1. […] Ratios of the mean fluorescence intensity were obtained with control cells.

integrin β6 = test: Surface expression of integrin αvβ6 by flow cytometry in CMV-infected HUVECs; conditions: 7 days, SB431542 0.1 to 1 μmol/L, Foscarnet 400 μmol/L, phosphonoacetic acid 100 μg/ml
Protocol: FIG. 20: Induction of integrin αvβ6 expression requires TGF-β signaling and viral DNA replication A: Infected HUVECs were cultured with or without chicken anti-TGF-β polyclonal antibody (20 μg/ml), chicken IgY isotype control antibody (control Ab, 20 μg/ml), the ALK5 kinase inhibitor SB431542 (0.5 μmol/L), or the vehicle DMSO for 7 days, and surface expression of integrin αvβ6 was analyzed by flow cytometric analysis. Typical histograms are shown. Shaded areas represent expression of specific proteins. Lines represent isotype control. Experiments were repeated at least two times. B: Surface expression of integrin αvβ6 was analyzed by flow cytometric analysis at 7 days after infection with or without viral DNA polymerase inhibitors, Foscarnet, and phosphonoacetic acid (PAA). Typical histograms are shown. Shaded areas represent expression of specific proteins. Lines represent isotype control. Experiments were repeated six times. C: Active TGF-β was not produced by infected HUVECs in the presence of viral DNA polymerase inhibitors. Equal numbers of TMLC TGF-β reporter cells and control (cont.) or infected HUVECs were cultured for 16 to 24 hours at 7 days after infection. Relative luciferase activity in cell lysates was defined as the measured activity divided by TMLC baseline activity. Representative data (mean±SE) are from four experiments done in triplicate.
The present example assesses how integrin β6 is induced on CMV infection in HUVECs. It has been reported that TGF-β1 induces de novo synthesis of integrin β6 in normal human keratinocytes (Zambruno et al., J Cell Biol, 129:853-865 (1995)) and strongly up-regulates its expression in primary cultures of human airway epithelial cells (Wang et al., Am J Respir Cell Mol Biol, 15:664-672 (1996)). […] HUVECs were cultured with the filtered conditioned medium for 8 days, and expression of integrin β6 was analyzed. […] It was then determined whether viral late gene expression is required for the up-regulation of integrin β6 in infected cells because the expression was observed only at late times after infection. […]

[1] = tested on: TGF-β1 activation in CMV-infected HUVECs; test: TGF-β bioassay: TMLC TGF-β reporter cells co-cultured with CMV-infected HUVECs, luciferase activity; conditions: 7 days after infection; Foscarnet 400 μmol/L or phosphonoacetic acid 100 μg/ml
Source text: FIG. 18: Integrin αvβ6-dependent TGF-β1 activation in CMV-infected HUVECs. A: TGF-β1 production by infected HUVECs. Conditioned medium was collected from control (open circles) and infected (filled circles) HUVECs at 1 to 9 days, and TGF-β1 was quantified by enzyme-linked immunosorbent assay. Results are the mean (±SE) of three experiments done in duplicate. Asterisks indicate the amount of TGF-β1 in infected HUVECs as compared with uninfected controls (*P<0.05, **P<0.01). B: Surface expression of TGF-β1 in HUVECs was analyzed by flow cytometry at 3, 7, and 10 days after infection and controls (cont). Typical histograms are shown. Shaded areas represent expression of specific proteins. Lines represent isotype control. Experiments were repeated at least three times. C: Total TGF-β1 was analyzed by flow cytometry using permeabilized cells at 3, 7, and 10 days after infection (inf.) and controls (cont). Left: Typical histograms at 10 days are shown. Shaded areas represent expression of specific proteins. Lines represent isotype control. Right: Results are the mean fluorescence intensity (±SE) of three experiments. Asterisks indicate expression in infected HUVECs as compared with uninfected controls (*P<0.05). D: TGF-β bioassay of active TGF-β produced by infected HUVECs. […] Relative luciferase activity in cell lysates was defined as the measured activity divided by TMLC baseline activity. […]

Smad3 phosphorylation = Smad3 phosphorylation by immunoblot in CMV-infected HUVECs; conditions: 8-day infected HUVECs; 1D11 40 μg/ml, 3G9 80 μg/ml, SB431542 2.5 μmol/L
Protocol: FIG. 19: CMV-infected HUVECs induce Smad3 phosphorylation. Cell lysates from control (cont.) or infected (inf.) HUVECs at 3, 7, and 10 days after infection were fractionated by 10% SDS-PAGE and blotted on nitrocellulose. Phosphorylation of Smad3 (pSmad3) and Smad1/5 (pSmad1/5) was analyzed by immunoblotting using phospho-specific Smad3 and Smad1/5/8 (pSmad1/5) antibodies. Equal loading of the gels was confirmed using Smad2/3, Smad1, and Smad5 protein levels. B: Effects of anti-TGF-β antibody, anti-αvβ6 antibody (3G9), and ALK5 kinase inhibitor on Smad3 phosphorylation. […]
Activated TGF-β1 can bind the type I receptors ALK1 and ALK5, which then phosphorylate the transcriptional activators Smad1/5 and Smad2/3, respectively (ten Dijke, P. and Hill, C. S., Trends Biochem Sci, 29:265-273 (2004)). To determine which of these TGF-β1 signaling pathways is activated in CMV-infected HUVECs, Smad1/5 and Smad3 phosphorylation was analyzed by immunoblotting with antibodies specific to Smads and their phosphorylated forms (FIG. 19A). Smad3 phosphorylation was strongly detected in 7- and 10-day-infected cells. […] Phosphorylated Smad1/5 was also weakly detected in the control. […]

fibronectin = test: Surface expression of fibronectin in CMV-infected HUVECs; conditions: late times after infection
Source text: TGF-β1 is a potent fibrotic factor responsible for the synthesis of ECM, and profibrotic TGF-β1 responses are induced primarily via ALK5/Smad3 signal transduction in normal fibroblasts (Ishida et al., J Invest Dermatol, 126:1733-1744 (2006)). TGF-β1 also potently promotes the synthesis and deposition of ECM in endothelial cells (Pepper, M. S., Cytokine Growth Factor Rev, 8:21-43 (1997)). […] Therefore, it was investigated in the present example whether CMV-activated TGF-β1 could increase ECM production and whether blocking TGF-β1 activation could prevent the effect. […] To evaluate the effect of inhibition of activation of TGF-β1 on CMV-induced profibrotic response, infected cells were treated with anti-TGF-β (1D11) and anti-αvβ6 (3G9) antibodies for 7 days. […] In addition, surface expression of fibronectin was increased at late times after infection, and was reduced by the ALK5 kinase inhibitor.

type IV collagen = test: Type IV collagen expression (flow cytometry, immunoblot) in CMV-infected HUVECs; conditions: infected HUVECs treated for 7 days
Protocol: FIG. 22: Increased type IV collagen synthesis by CMV infection was blocked by anti-TGF-β and anti-αvβ6 neutralizing antibodies. A: Surface expression of type IV collagen was analyzed by flow cytometric analysis at 10 days after infection. Typical histograms from control (cont.) and infected (inf.) HUVECs are shown. Shaded areas represent expression of specific proteins. Lines represent isotype control. B: The results represent the mean fluorescence intensity of type IV collagen (mean±SE) from three to seven experiments. Asterisks indicate surface expression in infected HUVECs as compared with uninfected controls (*P<0.01). C: Cell lysates from control (cont.) or infected (inf.) HUVECs at 3, 7, and 10 days after infection were fractionated by 8% SDS-PAGE and blotted on nitrocellulose. Filters were incubated with anti-type IV collagen (Col IV) and anti-actin (loading control) antibodies. D: Surface expression of type IV collagen was analyzed by flow cytometric analysis at 7 days without antibody (untreated) or with anti-TGF-β neutralizing antibody (1D11), function-blocking anti-αvβ6 antibody (3G9), or mouse IgG1 isotype control antibody (control Ab). Relative surface expression as expressed by mean fluorescence intensity was normalized for control HUVECs in the same experiment. Results are the mean (±SE) from three experiments. […]

Structure (SMILES) | CEACAM1 expression (CEACAM1) | induction of integrin β6 (integrin β6) | induction of TMLC luciferase activity (active TGF-β) [1] | further results
O[C@H](CS)[C@H](O)CS (racemic) [DTT, dithiothreitol] | reduce CEACAM1 expression |  |  | 
C[S+](C)[O-] [DMSO, dimethyl sulfoxide] | reduce CEACAM1 expression |  |  | 
O=C(O)P(=O)(O)O [Foscarnet] |  | blocked induction of integrin β6 | strongly suppressed | 
NC(=O)c1ccc(-c2nc(-c3ccc4c(c3)OCO4)c(-c3ccccn3)[nH]2)cc1 [SB431542] |  | nearly abolish it at high concentrations |  | Smad3 phosphorylation (Smad3 phosphorylation): prevented Smad3 phosphorylation; surface expression of fibronectin (fibronectin): reduced; surface expression of type IV collagen (type IV collagen): inhibitory effect
O=C(O)CP(=O)(O)O [phosphonoacetic acid] |  | blocked induction of integrin β6 | strongly suppressed | 
OCCS [β-mercaptoethanol] | reduce CEACAM1 expression |  |  | 

Source: patent publication US8609347B2, “Biomarkers for prenatal diagnosis of congenital cytomegalovirus” (priority 2007, dated 2013)
